From US12338262B2 (Forward Therapeutics, Inc., priority 2022, dated 2025)
pIC50: −log10 of the molar value.

Biological target: TNF-α (Homo sapiens, UniProt P01375)
Test: TNF-α Induced HEK Blue Cellular Assay
Type: cell-based
Conditions: HEK Blue TNFα reporter cells, TNF-α 100 pg/ml, 24 hrs at 37° C., secreted alkaline phosphatase (QUANTI-Blue, 620 nm)
Summary of the method: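 Read-out is SEAP via QUANTI-Blue absorbance at 620 nm after a 24 h, 37 °C incubation of reporter HEK Blue cells with 100 pg/ml TNF-α plus compound at final […]–0.5 nM. Percent inhibition normalised to DMSO ± stimulation; 4-parameter logistic fit gives IC50.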

Sequence of TNF-α (P01375 77-233 limits assumed): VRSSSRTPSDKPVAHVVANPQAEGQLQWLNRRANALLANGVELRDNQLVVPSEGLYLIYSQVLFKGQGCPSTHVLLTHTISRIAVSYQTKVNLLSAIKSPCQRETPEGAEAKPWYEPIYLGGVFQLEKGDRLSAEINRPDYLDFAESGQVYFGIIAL

Structure (SMILES) | pIC50
Cc1nc2cc(F)c(-c3ccc(P4(=O)CCOCC4)nc3)nc2c(N[C@H](C)c2cc(C#N)ccc2F)c1Cl [Example 141, 3-[(1R)-1-({3-chloro-7-fluoro-2-methyl-6-[6-(4-oxo-1,4lambda5-oxaphosphinan-4-yl)pyridin-3-yl]-1,5-naphthyridin-4-yl}amino)ethyl]-4-fluorobenzonitrile] | 5.00 to 6.00
Cc1nc2cc(F)c(-c3ccc(P(C)(C)=O)nc3)nc2c(NC(c2cccc(F)c2F)C(C)(F)F)c1Cl (stereo not shown) [Example 142, 3-chloro-N-[1-(2,3-difluorophenyl)-2,2-difluoropropyl]-6-[6-(dimethylphosphoryl)pyridin-3-yl]-7-fluoro-2-methyl-1,5-naphthyridin-4-amine] | 5.00 to 6.00
Cc1nc2cc(F)c(-c3ccc(P4(=O)CCOCC4)nc3)nc2c(N[C@H](C)c2cccc(F)c2F)c1Cl [Example 143, 4-[5-(7-chloro-8-{[(1R)-1-(2,3-difluorophenyl)ethyl]amino}-3-fluoro-6-methyl-1,5-naphthyridin-2-yl)pyridin-2-yl]-1,4lambda5-oxaphosphinan-4-one] | 4.52 to 5.00
Cc1nc2cc(F)c(-c3ccc(P(C)(C)=O)nc3)nc2c(N[C@H](C)c2cccc(F)c2F)c1C#N [Example 144, 4-{[(1R)-1-(2,3-difluorophenyl)ethyl]amino}-6-[6-(dimethylphosphoryl)pyridin-3-yl]-7-fluoro-2-methyl-1,5-naphthyridine-3-carbonitrile] | 4.52 to 5.00
Cc1nc2cc(F)c(-c3ccc(P(C)(C)=O)nc3)nc2c(N[C@H](c2cccc(F)c2F)C(F)F)c1Cl [Example 146, (R)-(5-(7-chloro-8-((1-(2,3-difluorophenyl)-2,2-difluoroethyl)amino)-3-fluoro-6-methyl-1,5-naphthyridin-2-yl)pyridin-2-yl)dimethylphosphine oxide] | 5.00 to 6.00
CC[C@@H](Nc1c(Cl)c(C)nc2cc(F)c(-c3ccc(P(C)(C)=O)nc3)nc12)c1cc(F)cc(F)c1 [Example 147, 3-chloro-N-[(1R)-1-(3,5-difluorophenyl)propyl]-6-[6-(dimethylphosphoryl)pyridin-3-yl]-7-fluoro-2-methyl-1,5-naphthyridin-4-amine] | 5.00 to 6.00
CC[C@H](Nc1c(Cl)c(C)nc2cc(F)c(-c3ccc(P(C)(C)=O)nc3)nc12)c1cc(F)cc(F)c1 [Example 148, 3-chloro-N-[(1S)-1-(3,5-difluorophenyl)propyl]-6-[6-(dimethylphosphoryl)pyridin-3-yl]-7-fluoro-2-methyl-1,5-naphthyridin-4-amine] | 5.00 to 6.00
CCC(Nc1c(Cl)c(C)nc2cc(F)c(-c3ccc(P(C)(C)=O)nc3)nc12)c1ccn(C)n1 (stereo not shown) [Example 149, 3-chloro-6-[6-(dimethylphosphoryl)pyridin-3-yl]-7-fluoro-2-methyl-N-[1-(1-methylpyrazol-3-yl)propyl]-1,5-naphthyridin-4-amine] | 4.52 to 5.00
Cc1nc2cc(F)c(-c3ccc(P(C)(C)=O)nc3)nc2c(N[C@H](C)c2cc(C3CC3)ccc2F)c1Cl [Example 150, 3-chloro-N-[(1R)-1-(5-cyclopropyl-2-fluorophenyl)ethyl]-6-[6-(dimethylphosphoryl)pyridin-3-yl]-7-fluoro-2-methyl-1,5-naphthyridin-4-amine] | ≥ 6.00

Next, values leading:

pIC50 | Structure (SMILES)
≥ 6.00 | Cc1nc2cc(F)c(-c3ccc(P(C)(C)=O)nc3)nc2c(N[C@@H](c2ccccc2)C2CC2)c1Cl [Example 137, 3-chloro-N—[(R)-cyclopropyl(phenyl)methyl]-6-[6-(dimethylphosphoryl)pyridin-3-yl]-7-fluoro-2-methyl-1,5-naphthyridin-4-amine]
≥ 6.00 | Cc1nc2cc(F)c(-c3ccc(P(C)(C)=O)nc3)nc2c(N[C@@H](c2cc(F)cc(F)c2)C2CC2)c1Cl [Example 138, 3-chloro-N—[(R)-cyclopropyl(3,5-difluorophenyl)methyl]-6-[6-(dimethylphosphoryl)pyridin-3-yl]-7-fluoro-2-methyl-1,5-naphthyridin-4-amine]
≥ 6.00 | Cc1nc2cc(F)c(-c3ccc(P(C)(C)=O)nc3)nc2c(N[C@H](c2cc(F)cc(F)c2)C2CC2)c1Cl [Example 139, 3-chloro-N—[(S)-cyclopropyl(3,5-difluorophenyl)methyl]-6-[6-(dimethylphosphoryl)pyridin-3-yl]-7-fluoro-2-methyl-1,5-naphthyridin-4-amine]
≥ 6.00 | Cc1nc2cc(F)c(-c3ccc(P(C)(C)=O)nc3)nc2c(N[C@H](c2ccccc2)C2CC2)c1Cl [Example 140, 3-chloro-N—[(S)-cyclopropyl(phenyl)methyl]-6-[6-(dimethylphosphoryl)pyridin-3-yl]-7-fluoro-2-methyl-1,5-naphthyridin-4-amine]
